Experiment: gradient 5% acetonitrile 3 min, to 50% in 2 min, to 85% in 15 min, held 3 min, 100 µL/min
Conditions: column: Zorbax Extend-C18 2.1 x 50 mm; eluents: water / acetonitrile, 0.1% formic acid
Summary of the method: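 Data were gathered over 3 months by HPLC coupled to a quadrupole time-of-flight mass spectrometer, operated in positive and negative ionization mode. Mixtures of ~100 pure standards ran on a Zorbax Extend-C18 column (2.1 × 50 mm, 1.8 μm) at 100 μL/min, with water and acetonitrile each containing 0.1% formic acid and dead and dwell volumes of 40 μL and 900 μL. Retention time was read from adduct peaks picked by computer and checked manually.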

Compound | RP-LC retention time [s]
N#Cc1ccc(Cl)cc1NC(=O)C1CCN(c2ccc(-c3cccs3)nn2)CC1 | 702
O=C(Nc1cccc(Cl)c1F)N1CCCC(Cn2c(C3CC3)nc3cccnc32)C1 (stereo not given) | 723
COC(=O)c1ccc(NC(=O)C2=Cc3cc(OC)ccc3OC=C2)cc1 | 1040
Cc1ccc2[nH]cc(CCN3CC(C(=O)N4CCCCC4)CC3=O)c2c1 (stereo not given) | 768
COc1cccc(-c2ccc(=O)n(CCc3nc(-c4cccc(F)c4)no3)n2)c1 | 970
CC1CN2C=NC(N3CCN(C(=O)c4ccccc4)CC3)=CC2=N1 (stereo not given) | 580
O=C(Cc1cccs1)N1CCC[C@H]1c1nc(-c2ccccc2)n[nH]1 | 711
CC(C)CCNC(=O)Cc1cn(C)c2ncccc12 | 679
Cc1nc(-n2cccc2)sc1C(=O)NCc1ccc(C(C)C)cc1 | 1130
Cn1c(CN2CCN(C(=O)c3cc4ccccc4o3)CC2)nc2ccccc21 | 580
Cc1ccc(NS(=O)(=O)c2cc3n(c2)CCN(C(C)C)C3=O)c(F)c1 | 765
CCc1nc(-c2ccc(C(=O)N3CCN(c4ncccn4)CC3)cc2)cs1 | 843
Cc1cc(C)n(CC(=O)N2CCCCCC2c2nnc(C)o2)n1 (stereo not given) | 631
CCN(C(=O)C1CCCN1S(=O)(=O)c1cc2c(cc1Cl)NC(=O)CO2)c1ccccc1 (stereo not given) | 836
CC(C)NC(=O)N1CCCC(c2cccc(C(=O)NCCN3CCCCC3)c2)C1 (stereo not given) | 608
CCOC(=O)CCNC(=O)N1CCC(N2CCN(Cc3ccc(C)cc3)C(=O)C2=O)CC1 | 681
Cc1ccc(CC(=O)NC2CCN(c3ccc(C)c(C)c3)C2=O)cc1 (stereo not given) | 904
Cc1ccc(CNC(=O)C2CCN(C(=O)c3ncn4c3COC(c3ccccc3)C4)CC2)cc1 (stereo not given) | 782
CC(C)Oc1ccccc1CN1CC(F)(F)C[C@H]1COc1ccncc1 | 752
Cc1ccc(-c2nc3cccc(C)n3c2Nc2ccc3c(c2)OCCO3)cc1 | 710
CC(C)(C)C1CCc2[nH]nc(C(=O)NC3CC3)c2C1 (stereo not given) | 843
Cc1ccc(C)c(NC(=O)N2CCN(CCn3c(C(C)C)nc4cccnc43)CC2)c1 | 621
COc1ccc(C2C(C(=O)Nc3cc(OC)ccc3OC)c3ccccc3C(=O)N2C)cc1 (stereo not given) | 929

Compound | RP-LC retention time [s]
O=C(NC1CCCC1)NC1CCN(C(=O)C2CC2)C1 (stereo not given) | 631
CCCN1CCN(C(=O)C2CCCN(c3nnc(C)c4c(C)n(-c5ccccc5)nc34)C2)CC1 (stereo not given) | 582
O=C(Nc1nnc(-c2ccc(C(F)(F)F)cc2)o1)c1cc2ccccc2o1 | 885
O=c1n(Cc2ccccc2)nc2ccc(S(=O)(=O)N3CCCCC3)cn12 | 910
O=C(C1CCCN(c2nccnc2Oc2ccccc2)C1)N1CCN(c2cccc(Cl)c2)CC1 (stereo not given) | 1180
CN1CCN(CCNC(=O)c2cc(-c3cccnc3)nc3ccc(Br)cc23)CC1 | 585
Cc1ccc2[nH]cc(CCNC(=O)Nc3ccc(Cl)c(Cl)c3)c2c1 | 1050
CCCn1cc(C(=O)NCC2CCCO2)c2cccnc21 (stereo not given) | 669
O=C(Cc1cccs1)NCc1cc(-c2ccc(Cl)cc2)on1 | 858
CCSc1nnc(-c2nn(C)c3c2CN(C(=O)c2cccc(F)c2)CC3)n1C | 744
CCOCCCNCc1ccc(-c2cccc(Cl)c2)o1 | 687
O=C(CSc1ncccn1)N1CCc2ccccc21 | 720
Cc1ccccc1CNC(=O)c1c(C)oc2c1C1=NCCN1C=N2 | 621
O=C(Cc1ccccc1Cl)N1CCc2nc(-c3ccc(Cl)cc3)ncc2C1 | 1140
Cc1ccc(F)cc1S(=O)(=O)N1CCCC(C)(C(=O)NCc2cccc(F)c2)C1 (stereo not given) | 1020
Cc1ccc(-c2cc3c(=O)n(Cc4noc(CN5CCCCCCC5)n4)ccn3n2)cc1 | 757
CC1Cc2ccccc2N1C(=O)C1CCN(S(=O)(=O)c2cn(C(C)C)cn2)CC1 (stereo not given) | 779
CC1CCC(NC(=O)C2CCN(S(=O)(=O)c3ccc4c(c3)sc(=O)n4C(C)C)CC2)CC1 (stereo not given) | 1020
Nc1c(C(=O)Nc2ccc([N+](=O)[O-])cc2)oc2ccccc12 | 880
COC(=O)CNC(=O)N1CCCC1c1ccc(OC)cc1 (stereo not given) | 678
Cc1cccc2c3c(ccc12)C1=C(C(=O)C3=O)[C@@H](C)CO1 | 1200
CCCN(C)CC1(O)CCC2(CCN(Cc3ccc(F)cc3)CC2)CC1 | 547
Cc1ccc(C)c(-c2cc3c(=O)n(Cc4noc(-c5ccccc5)n4)ccn3n2)c1 | 860

Compound | RP-LC retention time [s]
O=C(Cn1nc(S(=O)(=O)c2cccc(F)c2)ccc1=O)N1CCN(c2ccc(F)cc2)CC1 | 882
O=C(Nc1ccc(Br)cc1F)N1CCN(Cc2ccc3nccnc3c2)CC1 | 627
Cc1ccc(C(=O)NC2CCN(c3ccc(C)cc3)C2=O)cc1 (stereo not given) | 825
Cc1cccc(C)c1Nc1c(-c2ccccc2)nc2cnccn12 | 865
O=C(C1CCCN(c2nccnc2Sc2ccccc2)C1)N1CCOCC1 (stereo not given) | 850
COc1ccc(OC)c(CN2CCCC(OCc3noc(-c4ccoc4)n3)C2)c1 (stereo not given) | 702
Cc1ccc(-n2nc3c(N4CCCC(C(=O)N5CCc6ccccc65)C4)nnc(C)c3c2C)cc1 (stereo not given) | 830
O=C(NCc1ccc2c(c1)OCO2)C1CCN(CCc2c[nH]c3ncccc23)CC1 | 577
Cc1ccc(Cl)cc1N1CCN(C(=O)Cn2nc(C(=O)N3CCCC3)c3ccccc32)CC1 | 1010
COc1ccc2c(c1)CCN(C(=O)CNC(=O)c1ccc(=O)[nH]c1)C2 | 583
Cc1cc(C)cc(NC(=O)NCCn2nnc3cc(C(=O)N4CCCC4)ccc32)c1 | 702
Cc1noc(C2CCCCN2CC(=O)Nc2nccs2)n1 (stereo not given) | 675
COc1ccc(-c2c(C)noc2NC(C)=O)cc1S(=O)(=O)Nc1ccc(Cl)cc1 | 766
O=C(Nc1ccccc1F)C1COc2ccccc2C1 (stereo not given) | 874
CCOC(=O)c1c(S(=O)(=O)N2CCc3ccccc3C2)c(C)n(C)c1C | 989
CCCNc1cc(N2CCC(CCC(=O)Nc3ccc(OC)c(OC)c3)CC2)ncn1 | 648
O=C(NCCn1nnc2cc(C(=O)N3CCCC3)ccc21)Nc1ccc(Cl)cc1 | 792
CCc1ccc(NC(=O)C2CCCN(c3nccnc3Sc3ccc(C)cc3)C2)cc1 (stereo not given) | 1290
COC(=O)Nc1nc(CC(=O)NCc2ccccc2Cl)cs1 | 667
CC(=O)c1ccc(NC(=O)NC2CCN(c3nc4ccccc4n(C)c3=O)CC2)cc1 | 748
CC(C)(Oc1ccc(Cl)cc1)C(=O)NCC1CCN(C(=O)Nc2ccc(F)cc2)CC1 | 874
COc1ccc(Cl)cc1NC(=O)c1c(O)c2cccnc2n(-c2ccc(F)cc2)c1=O | 1280
CCN(Cc1ccc(F)cc1)Cc1cc(=O)c2cccc(F)c2[nH]1 | 594

Compound | RP-LC retention time [s]
CC(=O)N1c2ccc(S(=O)(=O)N3CCCC3)cc2CC1C(=O)NCCC(C)C (stereo not given) | 806
CCN(CC)CCNC(=O)c1cc2n(n1)CC(C)(C(=O)NCc1ccc(F)cc1)N(C)C2=O (stereo not given) | 589
O=C(NCc1ccccc1C(F)(F)F)c1cn2ccccc2n1 | 757
Cc1cccn2cc(-c3cccc(S(=O)(=O)N4CCCCC4)c3)nc12 | 700
CCN1CCN(Cc2nc(Cn3ccn4nc(-c5ccc(C)c(C)c5)cc4c3=O)no2)CC1 | 674
Cc1cccc(C(=O)Nc2nc(-c3ccc4c(c3)NC(=O)CO4)c(C)s2)c1 | 918
Cc1oc(-c2[nH]ncc2C(=O)N(C)C)cc1S(=O)(=O)Nc1cccc(C(F)(F)F)c1 | 763
COc1ccc(CC(=O)N2CCC3(C2)C(=O)Nc2ccc(OC)cc23)c(Cl)c1 (stereo not given) | 768
O=C(C1CCCO1)N1CCC(OCc2nc(-c3ccccc3)no2)CC1 (stereo not given) | 778
Cc1cc(C(=O)N2C[C@@H](C)[C@H](c3nc(-c4ccncc4)no3)C2)n[nH]1 | 619
CN(C)C(=O)OCC1COc2ccccc2O1 (stereo not given) | 883
Cc1ccc2c(c1)N(C(=O)Cn1ccn3nc(-c4ccccc4)c(CO)c3c1=O)CCO2 | 908
Cn1c(C(=O)NCCC2=CCCCC2)cc2c(=O)oc3ccccc3c21 | 1050
CCC(CC)C(=O)Nc1nc(-c2ccc3c(c2)NC(=O)CO3)cs1 | 846
Cc1cc(C)cc(N2C(=O)CN(S(C)(=O)=O)CC2(C)C(=O)NCc2ccccc2)c1 (stereo not given) | 851
COc1ccc(C2Cn3nnc(-c4nc(-c5ccc(OCc6ccccc6)cc5)no4)c3CO2)cc1 (stereo not given) | 1340
O=C(NCc1ccccc1)N1CCCC1c1nc(-c2ccccc2)n[nH]1 (stereo not given) | 731
CCCN(Cc1ccc(OC)c(OC)c1)Cc1cc(=O)n2ccccc2n1 | 592
O=C(Nc1ccc(F)cc1F)c1ncccn1 | 661
O=C(c1ccc2c(c1)OCO2)N1CCC(F)(F)C(COCC2CC2)C1 (stereo not given) | 933
NC(=O)C1CCN(C(=O)Cc2csc(NC(=O)Nc3ccc(Cl)cc3)n2)CC1 | 684

From the METLIN SMRT retention time set (Domingo-Almenara et al. 2019)
